Patent US20030157101A1, “Immunogenic ALK peptides” (priority 2001, published 2003)
“And” between values parts separate entries of the source, which are not always exact repeats. Equal values may be shown once. “Also recorded” adds a separate entry of the source.

Assays:
[1] = system: HLA-A*0201 monochain transgenic (HHD) mice; test: In vivo immunogenicity of ALK-derived peptides in HHD mice (51Cr-release on peptide-pulsed RMA-S/HHD cells); settings: for R/T HHD mice (responder versus tested mice): 100 μg peptide s.c. in IFA, responder = specific lysis at least 15% above lysis of unloaded RMA-S/HDD; for % lysis of peptide-loaded RMA-S/HHD cells: E:T ratio 60:1, maximal lysis observed for each responder mouse
[2] = system: healthy donor PBLs; test: Stimulation of ALK-specific CTLs from healthy donor PBLs; type: cell-based, human; settings: three donors tested per peptide; lysis of peptide loaded T2 cells and NPM/ALK-positive lymphoma lines
Method: Blood was collected from HLA-A*0201 normal volunteer donors. PBMC were isolated from whole blood by Ficoll/Hypaque (Pharmacia, Uppsala, Sweden) density gradient centrifugation. Dendritic cells (DCs) were generated according to the protocol of Sallusto and Lanzavecchia (Sallusto F. et al., (1994) J Exp Med. 179: 1109-1118). Adherent monocyte-enriched peripheral blood mononuclear cells (PBMCs) were cultured in RPMI 1640 medium supplemented with 10% FCS, 20 ng/ml recombinant human interleukin (IL)-4 (R&D Systems, Minneapolis, Minn.) and 800 U/ml recombinant human granulocyte-macrophage colony-stimulating factor (GM-CSF) (Sandoz, Basel, Switzerland). On day 5 of culture, 10 ng/ml recombinant human tumor necrosis factor (TNF)-α (Knoll, Ludwigshafen, Germany) was added to the medium. After 40 hrs, the surface phenotype of monocyte-derived DCs was determined by single-color flow cytometry using the following mAbs: fluorescein-conjugated anti-CD1a ([…], Torino, Italy), anti-CD86 (CALTAG, Burlingame, Calif.), anti-CD83 (CALTAG, Burlingame, Calif.), anti-CD14 (Becton Dickinson) and rhodamine-conjugated anti-CD80 (Becton Dickinson). DCs were used to prime autologous PBL as follows. DCs were pulsed with 10 μM peptide for 2 hrs at 37° C., irradiated at 30 Gy and added to autologous PBLs at a ratio variable from 3:1 to 6:1 (PBL:DC). PBLs (36×10^6 total) were cultured at 1,5×10^6 cells/2ml of Culture Medium (CM: 50% RPMI 1640/50% X-VIVO (BioWhittaker, […], Mass.)) supplemented with 10% of heat-inactivated autologous plasma and 10 ng/ml IL-7 (R&D Systems, Minneapolis, Minn.) in the presence of autologous peptide-loaded DCs. At day 10-12 of culture, lymphocytes were restimulated with irradiated (30 Gy) autologous peptide-loaded monocytes in CM supplemented with 10% of heat-inactivated autologous plasma. After 24-48 hrs 10 IU/ml IL-2 (Chiron Co., Emeryville, Calif.) and 10 ng/ml IL-7 was added to the CM. Lymphocytes were then restimulated weekly in the same way. Starting from the forth round of stimulation, the specificity of the resulting T-cell lines was evaluated weekly in a cytolytic assay. When any specific activity was detected, CD8+ T-cells were isolated from the bulk culture by CD4+ cells negative depletion using mAb-coated beads (Dynal Dynabeads, Oxoid, Oslo, Norway) and the CTL lines were maintained in culture in RPMI 1640 containing 10% human AB serum supplemented with 50 U/ml IL-2 in the presence of irradiated (70 Gy) PBMCs as feeder. To prime ALK-specific lymphocytes, peptide-pulsed autologous dendritic cells (DCs) derived from peripheral blood mononuclear cells (PBMCs) were used after their in vitro maturation was confirmed by flow cytometric analysis of DC-specific cell surface markers. After a 3-4 week cycle of restimulation T lymphocyte specificity for ALK peptides was evaluated by determining antigen-restricted lysis of peptide loaded T2 cells (FIG. 1A) and NPM/ALK-positive lymphoma cell lines (FIG. 1B).

[3] = biological target: HLA-A*0201/peptide complexes (Homo sapiens, UniProt P04439, D140Y/D185E/D98H/E176V/E277Q/G131W/G231S/I119V/I121R/I166T/I218V/L300P/L318F/N151K/N90K/P208A/P217A/Q86G/Q94H/R138H/R169H/T345S); test: HLA-A*0201/peptide complex stability on T2 cells (DC50); type: binding; settings: 100 μM peptide overnight, Brefeldin A, 37° C.
Method: To assess the HLA-A*0201/peptide complex stability, T2 cells (10^6/ml) were incubated overnight with 100 μM of each peptide in serum free RPMI 1640 supplemented with 100 ng/ml of human β2m at 37° C. Cells were then washed four times to remove free peptides, incubated for 1 hr with 10 μg/ml of Brefeldin A (Sigma-Aldrich, France) in order to block cell surface expression of newly synthesized HLA-A*0201 molecules, washed and incubated at 37° C. for 0, 2, 4, 6, or 8 hours. Subsequently, cells were stained with anti-HLA-A2.1 mAb BB7.2. For each time point, peptide induced HLA-A*0201 expression was calculated as: mean fluorescence value of peptide incubated T2 cells/mean fluorescence value T2 cells in the absence of the peptide.

[4] = system: FM3 (melanoma), HCT-116 (colon carcinoma), MCF-7 (breast carcinoma); test: 51Cr release lysis of HLA-A2.1+/ALK- tumor lines by peptide-specific CTLs; type: cell-based, human; settings: FM3, HCT-116, MCF-7
Method: (§1) Cytolytic activity was measured in a conventional 4-hrs ^51Cr release assay. A 10-fold excess of unlabeled K562 cells was added to offset NK activity. Target cells and E:T ratio are indicated in each figure. Specific lysis was determined according to the following formula: % specific lysis=cpm (sample−spontaneous)/cpm (total−spontaneous)×100. HLA-A*0201 blocking of T-cell activity (lysis and/or citokine release) was performed by preincubating target cells with the anti-HLA-A2 mAb CR11.351.
(§2) Thus, it can be concluded that ALK peptide induced CTLs efficiently lyse lymphoma targets, in a HLA-A2 restricted fashion, by relevant antigen-specific recognition.

[5] = system: anti-ALK specific CTLs; test: IFN-γ release assay with anti-ALK CTL lines (ELISA); type: cell-based, human; settings: for IFN-γ released by p280-89 CTLs: p280-89 loaded autologous LCL; for Peptide concentration giving maximal IFN-γ production: titration on T2 cells, peptide-specific CTL lines
[6] = system: ALCL lymphoma cell lines SU-DHL1 and SUP-M2; test: 51Cr release lysis of NPM/ALK-expressing ALCL cell lines by peptide-specific CTLs; type: cell-based, human; settings: SU-DHL1 and SUP-M2, HLA-A2.1+
Method: as §1, §2

[7] = system: ALCL lymphoma cell lines SU-DHL1 and SUP-M2; settings: cited from earlier work
[8] = system: SK-N-SH (HLA-A2.1-/ALK+) and NB-5 (HLA-A2.1+/ALK-) cell lines; test: 51Cr release lysis of control neuroblastoma lines by peptide-specific CTLs; type: cell-based, human
Method: as §1, with “(sample-spontaneous)/cpm (total-spontaneous)×100.” for “(sample−spontaneous)/cpm (total−spontaneous)×100.”, “CR11.351. […] Because p280-89 and p376-85 peptides lie within the kinase domain, which is present in both native and translocated ALK, we used neuroblastoma cell lines as targets in cytotoxic experiments to further verify the natural processing of these two epitopes.” for “CR11.351.”

[9] = system: neuroblastoma cell line IMR-32; test: 51Cr release lysis of HLA-A2.1+/ALK+ neuroblastoma cells by peptide-specific CTLs; type: cell-based, human; settings: IMR-32, treated with INF-γ before use
Method: as §1, with “(sample-spontaneous)/cpm (total-spontaneous)×100.” for “(sample−spontaneous)/cpm (total−spontaneous)×100.”, “CR11.351. […] Because p280-89 and p376-85 peptides lie within the kinase domain, which is present in both native and translocated ALK, we used neuroblastoma cell lines as targets in cytotoxic experiments to further verify the natural processing of these two epitopes.” for “CR11.351.”

[10] = biological target: T1, HLA-A*0201 molecules on TAP-deficient T2 cells (human); test: T2 cell HLA-A*0201 stabilisation, 100 uM peptide, flow cytometry with mAb BB7.2; mean of 4 experiments ± SEM
T1 construct: Peptide-receptive class I molecule on T2 cells; also called HLA-A2.1; HLA-A2
Method: T2 cells were incubated with 100 μM of peptide in serum-free RPMI 1640 supplemented with 5 μg/ml of human β₂m (Fluka, Buchs, Germany) for 18 hrs at 37° C.

[11] = biological target: T1, HLA-A*0201 molecules on TAP-deficient …; test: T2 cells loaded with 100 uM peptide, Brefeldin A, flow cytometry with BB7.2 over 0-8 h
Source text: Subsequently, cells were stained with anti-HLA-A2.1 mAb BB7.2.

Molecule	R/T HHD mice (responder versus tested mice) [1]	% lysis of peptide-loaded RMA-S/HHD cells [1]	Donor response to peptide stimulation (specific CD8 reactivity) [2]	DC50, half-life of disassociation of HLA-A*02.01/peptide complexes [3]	FI (Fluorescence Index) [10]	other results
LAMLDLLHV (listed as Homo sapiens) [p281-89]	2/6	42% and 34%	No specific CD8 reactivity was detected			
SLTANMKEV (listed as Homo sapiens) [p621-29]	2/6	63% and 53%	No specific CD8 reactivity was detected	4 to 6 h		
ALPIEYGPLV (listed as Homo sapiens) [p456-65]	2/6		At least one out of the three donors tested were found to be responders	2 to 4 h		
SLAMLDLLHV (listed as Homo sapiens) [p280-89]	3/6		At least one out of the three donors tested were found to be responders			Lysis of HLA-A2.1+/ALK- tumor lines by peptide-specific CTLs [4]: no activity was detected; also recorded: No lysis above background level; IFN-γ released by p280-89 CTLs ([5]; donor three, 5 μM peptide): 750 IU/ml; IFN-γ released by p280-89 CTLs ([5]; donor two, 5 μM peptide): 445 IU/ml; Peptide concentration giving maximal IFN-γ production [5]: 10 nM; Lysis of NPM/ALK-expressing ALCL cell lines by peptide-specific CTLs [6]: efficiently recognize and lyse; also recorded: killed these tumor lines; CTL cytotoxicity against NPM/ALK-positive lymphoma cell lines [7]: stimulate CTL cytotoxicity; Lysis of HLA-A2.1-/ALK+ or HLA-A2.1+/ALK- neuroblastoma lines by peptide-specific CTLs [8]: No lysis was detected; Lysis of HLA-A2.1+/ALK+ neuroblastoma cells by peptide-specific CTLs [9]: recognize and kill; also recorded: efficiently lysed
GVLLWEIFSL (listed as Homo sapiens) [p376-85]	3/6	24% and 15%	At least one out of the three donors tested were found to be responders			Lysis of HLA-A2.1+/ALK- tumor lines by peptide-specific CTLs [4]: no activity was detected; also recorded: No lysis above background level; IFN-γ released by p376-85 CTLs ([5]; donor one, p376-85 pulsed T2 cells, 5 μM peptide): 674 IU/ml; Peptide concentration giving maximal IFN-γ production [5]: 100 nM; Lysis of NPM/ALK-expressing ALCL cell lines by peptide-specific CTLs [6]: efficiently recognize and lyse; also recorded: killed these tumor lines; Lysis of HLA-A2.1-/ALK+ or HLA-A2.1+/ALK- neuroblastoma lines by peptide-specific CTLs [8]: No lysis was detected; Lysis of HLA-A2.1+/ALK+ neuroblastoma cells by peptide-specific CTLs [9]: efficiently lysed; Lysis of HLA-A2.1+/ALK+ neuroblastoma cells by peptide-specific CTLs ([9]; listed as p375-86): recognize and kill
VLLWEIFSL (listed as Homo sapiens) [p377-85]	3/6		At least one out of the three donors tested were found to be responders	4 to 6 h		
AMLDLLHVA (listed as Homo sapiens) [p282-90]	3/6	80% and 56% and 50%	No specific CD8 reactivity was detected	4 to 6 h		
AMLDLLHVA [ALK peptide p282-90 (AMLDLLHVA)]					5.4 ratio (sample / irrelevant-peptide control)	
LAMLDLLHV [ALK peptide p281-89 (LAMLDLLHV)]					3.5 ratio (sample / irrelevant-peptide control)	DC50 (half-life of dissociation of HLA-A*0201/peptide complexes) [11]: 2 hs (hours)
SLAMLDLLHV (Lies within the ALK kinase domain) [ALK peptide p280-89 (SLAMLDLLHV)]					5.6 ratio (sample / irrelevant-peptide control)	DC50 (half-life of dissociation of HLA-A*0201/peptide complexes) [11]: 4 hs (hours)
VLLWEIFSL [ALK peptide p377-85 (VLLWEIFSL)]					3 ratio (sample / irrelevant-peptide control)	
ALPIEYGPLV (Downstream of the kinase domain) [ALK peptide p456-65 (ALPIEYGPLV)]					4.2 ratio (sample / irrelevant-peptide control)	
GVLLWEIFSL (also called p375-86) [ALK peptide p376-85 (GVLLWEIFSL)]					2.8 ratio (sample / irrelevant-peptide control)	DC50 (half-life of dissociation of HLA-A*0201/peptide complexes) [11]: 6 hs (hours)
